Source: US9637479B2, “Tartrate salt of 5-chloro-thiophene-2-carboxylic acid [(S)-2-[2-methyl-3-(2-oxo-pyrrolidin-1-yl)-benzenesulfonylamino]-3-(4-methyl-piperazin-1-yl)-3-oxo-propyl]amide” (SANOFI, priority 2013, dated 2017)
Where a name gives a salt, the structure may show the parent alone. Read-outs that look alike come from different tables or passages of the source.

Tests used:
Type in all cases: physicochemical
[1] = Physical properties: hygroscopicity, water uptake, behavior under saturated humidity; details: for Behavior under saturated humidity 80° C.: sodium and L-lactate: after 24 hours
[2] = Test of stability in solution (strong oxidizing solution, H2O2 at 0.3%); proportion of main N-oxide impurity; details: room temperature
Method: The sodium, L-lactate and L-tartrate salts of the compound of formula (I) were analyzed after one week of storage in a strong oxidizing solution: the three compounds were maintained in a solution of H2O2 at 0.3%, at room temperature. After either 6 hours or one week, the proportion of the main N-oxide impurity of the compound of formula (I) [drawing 4] was measured.

[3] = Test of stability in the solid state (stress degradation, one week of storage); details: for Stress degradation conditions 80°/saturated humidity: one week of storage at 80° C. under saturated humidity; for Stress degradation conditions 80° C./dry: one week of storage at 80° C., stable = optically, chemically and physically
Method: The sodium, L-lactate and L-tartrate salts of the compound of formula (I) were analyzed after one week of storage, at: • 80° C. • 80° C. and under saturated humidity, […]

[4] = Test of solubility in different buffers
Method: The solubility of sodium, L-lactate and L-tartrate salts of the compound of formula (I) was analyzed in different buffers. The results are described in table below (solubility of the tested compound is expressed in mg/ml).

[5] = 0.2M pH = 9 hydregenocarbonate buffer

## Cc1c(N2CCCC2=O)cccc1S(=O)(=O)N[C@@H](CNC(=O)c1ccc(Cl)s1)C(=O)N1CCN(C)CC1 [L-lactate salt, 5-chloro-thiophene-2-carboxylic acid [(S)-2-[2-methyl-3-(2-oxo-pyrrolidin-1-yl)-benzenesulfonylamino]-3-(4-methyl-piperazin-1-yl)-3-oxo-propyl]amide]
[1]
  Hygroscopicity: Hygroscopic
  Water uptake 80% RH 25° C.: 2.5%
  Behavior under saturated humidity 80° C.: Gel formation-amorphous
[2]; after 1 week
  % of impurity (main N-oxide impurity): 6.9% after 1 week
[3]
  Stress degradation conditions 80°/saturated humidity: slight degradation
  Stress degradation conditions 80° C./dry: stable*
[4]; 0.1M pH = 4 phosphate buffer
  Solubility: >10000 µg/mL
[4]; 0.1M pH = 6.5 phosphate buffer
  Solubility: >10000 µg/mL
[4]; 0.1M pH = 7.4 phosphate buffer
  Solubility: 9800 µg/mL
[4]; 0.1N HCl
  Solubility: >10000 µg/mL
[4]; [5]
  Solubility: 8500 µg/mL
[4]; Purified water
  Solubility: >10000 µg/mL

## Cc1c(N2CCCC2=O)cccc1S(=O)(=O)N[C@@H](CNC(=O)c1ccc(Cl)s1)C(=O)N1CCN(C)CC1 [L-tartrate salt, 5-chloro-thiophene-2-carboxylic acid [(S)-2-[2-methyl-3-(2-oxo-pyrrolidin-1-yl)-benzenesulfonylamino]-3-(4-methyl-piperazin-1-yl)-3-oxo-propyl]amide]
[1]
  Hygroscopicity: Slightly
  Water uptake 80% RH 25° C.: 0.9%
  Behavior under saturated humidity 80° C.: Stable 7 days
[2]; after 1 week
  % of impurity (main N-oxide impurity): 0.77% after 1 week
[3]
  Stress degradation conditions 80°/saturated humidity: stable
  Stress degradation conditions 80° C./dry: stable*
[4]; 0.1M pH = 4 phosphate buffer
  Solubility: >10000 µg/mL
[4]; 0.1M pH = 6.5 phosphate buffer
  Solubility: >10000 µg/mL
[4]; 0.1M pH = 7.4 phosphate buffer
  Solubility: >10000 µg/mL
[4]; 0.1N HCl
  Solubility: >10000 µg/mL
[4]; [5]
  Solubility: 8300 µg/mL
[4]; Purified water
  Solubility: >10000 µg/mL

## Cc1c(N2CCCC2=O)cccc1S(=O)(=O)N[C@@H](CNC(=O)c1ccc(Cl)s1)C(=O)N1CCN(C)CC1 [Sodium salt, 5-chloro-thiophene-2-carboxylic acid [(S)-2-[2-methyl-3-(2-oxo-pyrrolidin-1-yl)-benzenesulfonylamino]-3-(4-methyl-piperazin-1-yl)-3-oxo-propyl]amide]
[1]
  Hygroscopicity: Highly
  Water uptake 80% RH 25° C.: 31.5%
  Behavior under saturated humidity 80° C.: Deliquescence
[2]; after 6 hours
  % of impurity (main N-oxide impurity): 25.4% after 6 hours
[3]
  Stress degradation conditions 80°/saturated humidity: huge degradation
  Stress degradation conditions 80° C./dry: stable*
[4]; 0.1N HCl, simulated gastric fluid, 0.1N HCl, read-out: Solubility
  Solubility: > 10000 µg/mL
[4]; hydrogenocarbonate buffer, pH 9, aqueous buffer, 0.2M pH = 9 hydregenocarbonate buffer, read-out: Solubility
  Solubility: > 10000 µg/mL
[4]; phosphate buffer, pH 4, aqueous buffer, 0.1M pH = 4 phosphate buffer, read-out: Solubility
  Solubility: 8900 µg/mL
[4]; phosphate buffer, pH 6.5, aqueous buffer, 0.1M pH = 6.5 phosphate buffer, read-out: Solubility
  Solubility: 6500 µg/mL
[4]; phosphate buffer, pH 7.4, aqueous buffer, 0.1M pH = 7.4 phosphate buffer, read-out: Solubility
  Solubility: 6900 µg/mL
[4]; purified water, water, Purified water, read-out: Solubility
  Solubility: > 10000 µg/mL
